Assays:
human BACE2 = target: T1, human BACE2 (Homo sapiens, UniProt Q9Y5Z0); experiment: Fluorescent Kinetic Assay for Human Recombinant BACE 2 (selectivity BACE1/BACE2); assay type: biochemical; conditions: selectivity BACE1 over BACE2; 1.5 nM human BACE2, 25 μM substrate, pH 4.5;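 further: cleavage rate from the linear slope of fluorescence (excitation 320 nm, emission 420 nm) recorded every 40 s over 30 min at room temperature, sodium acetate buffer with 0.05% CHAPS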
T1 sequence (Q9Y5Z0 63-518): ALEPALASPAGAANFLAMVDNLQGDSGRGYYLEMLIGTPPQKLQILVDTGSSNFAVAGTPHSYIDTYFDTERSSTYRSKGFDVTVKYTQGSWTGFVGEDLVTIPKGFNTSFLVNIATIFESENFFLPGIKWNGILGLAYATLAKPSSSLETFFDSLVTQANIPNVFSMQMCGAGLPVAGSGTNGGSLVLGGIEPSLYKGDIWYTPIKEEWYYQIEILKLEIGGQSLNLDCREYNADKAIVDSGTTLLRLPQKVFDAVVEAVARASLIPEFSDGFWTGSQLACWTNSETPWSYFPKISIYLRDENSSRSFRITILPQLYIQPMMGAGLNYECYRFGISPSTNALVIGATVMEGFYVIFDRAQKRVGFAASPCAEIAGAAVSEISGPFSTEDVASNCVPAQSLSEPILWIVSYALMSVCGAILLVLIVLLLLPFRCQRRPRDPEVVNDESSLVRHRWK

human BACE1 = human BACE1 (Homo sapiens, UniProt P56817); experiment: Fluorescent kinetic assay, inhibition of BACE1 (WABC-6 peptide substrate); assay type: biochemical; conditions: 10 nM enzyme, 25 μM substrate WABC-6, pH 4.5, room temperature; read-out: IC50 (μM) BACE1;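 further: fluorescence monitored at 320 nm excitation and 420 nm emission every 40 s over 30 min, with the substrate cleavage rate taken from the linear slope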
human BACE1, sequence (P56817 46-501): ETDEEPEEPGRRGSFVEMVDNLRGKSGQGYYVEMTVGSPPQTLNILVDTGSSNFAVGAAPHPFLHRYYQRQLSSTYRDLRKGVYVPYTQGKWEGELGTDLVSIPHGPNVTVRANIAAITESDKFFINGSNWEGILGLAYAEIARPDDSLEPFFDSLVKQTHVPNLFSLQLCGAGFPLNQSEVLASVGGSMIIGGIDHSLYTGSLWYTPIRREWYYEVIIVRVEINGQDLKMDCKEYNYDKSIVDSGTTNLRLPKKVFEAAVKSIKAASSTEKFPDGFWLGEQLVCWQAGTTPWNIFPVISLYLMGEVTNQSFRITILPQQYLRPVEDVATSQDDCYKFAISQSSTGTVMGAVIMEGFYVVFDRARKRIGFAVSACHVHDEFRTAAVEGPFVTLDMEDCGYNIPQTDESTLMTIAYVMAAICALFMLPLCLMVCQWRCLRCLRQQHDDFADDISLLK

Structure (SMILES)	melting point [°C]	BACE1/BACE2 selectivity (human BACE2)	IC50 (human BACE1) [µM]
CCCNC1=NC(c2cccc(-c3cncnc3)c2)(c2ccc(OCCC)c(C)c2)C(=O)N1C (centres unmarked)	64 to 66		
COc1cc(C2(c3cccc(-c4cccnc4)c3)N=C(N)N(C)C2=O)cc(OC)c1OC (centres unmarked) [Example 23]	104 to 107	II (II = 10-100-fold selectivity)	0.01 to 0.1
CCOc1ccc([C@@]2(c3cccc(-c4cccnc4F)c3)N=C(N)N(C)C2=O)cc1OCC [Example 103A, (5R)-2-Amino-5-(3,4-diethoxyphenyl)-5-[3-(2-fluoropyridin-3-yl)phenyl]-3-methyl-3,5-dihydro-4H-imidazol-4-one]		III (III = <10-fold selectivity)	> 1
CCOc1ccc([C@]2(c3cccc(-c4cccnc4F)c3)N=C(N)N(C)C2=O)cc1OCC [Example 103B, (5S)-2-Amino-5-(3,4-diethoxyphenyl)-5-[3-(2-fluoropyridin-3-yl)phenyl]-3-methyl-3,5-dihydro-4H-imidazol-4-one]		II (II = 10-100-fold selectivity)	0.01 to 0.1
COc1ccc([C@]2(c3ccc(F)c(-c4cncnc4)c3)N=C(N)N(C)C2=O)cc1C(F)(F)F [Example 107A, (5S)-2-Amino-5-(4-fluoro-3-pyrimidin-5-ylphenyl)-5-[4-methoxy-3-(trifluoromethyl)phenyl]-3-methyl-3,5-dihydro-4H-imidazol-4-one]		I (I = >100-fold selectivity)	0.01 to 0.1
COc1ccc([C@@]2(c3ccc(F)c(-c4cncnc4)c3)N=C(N)N(C)C2=O)cc1C(F)(F)F [Example 107B, (5R)-2-Amino-5-(4-fluoro-3-pyrimidin-5-ylphenyl)-5-[4-methoxy-3-(trifluoromethyl)phenyl]-3-methyl-3,5-dihydro-4H-imidazol-4-one]		III (III = <10-fold selectivity)	> 1
CN1C(=O)C(c2ccc(OCCF)cc2)(c2cccc(-c3cncc(F)c3)c2)N=C1N (centres unmarked) [Example 110]		II (II = 10-100-fold selectivity)	0.01 to 0.1
Cc1cc(C2(c3cccc(-c4cncnc4)c3)N=C(N)N(C)C2=O)ccc1OCCC1CCCCC1 (centres unmarked) [Example 123]		II (II = 10-100-fold selectivity)	0.11 to 1
NC1=NC(c2ccc(OC(F)(F)F)cc2)(c2ccc(F)c(-c3cncnc3)c2)C(=O)N1CCF (centres unmarked) [Example 126]		I (I = >100-fold selectivity)	0.11 to 1
NC1=NC(c2ccc(OC(F)(F)F)cc2)(c2ccc(F)c(-c3cccnc3F)c2)C(=O)N1CCF (centres unmarked) [Example 127]		I (I = >100-fold selectivity)	0.11 to 1
CCN1C(=O)C(c2ccc(OC(F)F)cc2)(c2ccc(F)c(-c3cncc(F)c3)c2)N=C1N (centres unmarked) [Example 128]		II (II = 10-100-fold selectivity)	0.11 to 1
Cc1cc(C2(c3cccc(-c4cncnc4)c3)N=C(N)N(C)C2=O)ccc1O[C@H](C)c1ccccc1 (stereo partly drawn) [Example 131, 2-amino-3-methyl-5-{3-methyl-4-[(1R)-1-phenylethoxy]phenyl}-5-(3-pyrimidin-5-ylphenyl)-3,5-dihydro-4H-imidazol-4-one]	112 to 114		0.01 to 0.1
CN1C(=O)[C@](c2ccc(OC(F)F)cc2)(c2ccc(F)c(-c3cccnc3F)c2)N=C1N [Example 133A, (5S)-2-Amino-5-[4-(difluoromethoxy)phenyl]-5-[4-fluoro-3-(2-fluoropyridin-3-yl)phenyl]-3-methyl-3,5-dihydro-4H-imidazol-4-one]		III (III = <10-fold selectivity)	0.11 to 1
CN1C(=O)[C@@](c2ccc(OC(F)F)cc2)(c2ccc(F)c(-c3cccnc3F)c2)N=C1N [Example 133B, (5R)-2-Amino-5-[4-(difluoromethoxy)phenyl]-5-[4-fluoro-3-(2-fluoropyridin-3-yl)phenyl]-3-methyl-3,5-dihydro-4H-imidazol-4-one]		II (II = 10-100-fold selectivity)	0.01 to 0.1
CN1C(=O)[C@](c2ccc(OC(F)F)cc2)(c2ccc(F)c(-c3ccc(F)nc3)c2)N=C1N [Example 134A, (5S)-2-Amino-5-[4-(difluoromethoxy)phenyl]-5-[4-fluoro-3-(6-fluoropyridin-3-yl)phenyl]-3-methyl-3,5-dihydro-4H-imidazol-4-one]		III (III = <10-fold selectivity)	0.11 to 1
CN1C(=O)[C@@](c2ccc(OC(F)F)cc2)(c2ccc(F)c(-c3ccc(F)nc3)c2)N=C1N [Example 134B, (5R)-2-Amino-5-[4-(difluoromethoxy)phenyl]-5-[4-fluoro-3-(6-fluoropyridin-3-yl)phenyl]-3-methyl-3,5-dihydro-4H-imidazol-4-one]		II (II = 10-100-fold selectivity)	0.01 to 0.1
CN1C(=O)[C@](c2ccc(OC(F)F)cc2)(c2cccc(-c3ccc(F)nc3)c2)N=C1N [Example 135A, (5S)-2-Amino-5-[4-(difluoromethoxy)phenyl]-5-[3-(6-fluoropyridin-3-yl)phenyl]-3-methyl-3,5-dihydro-4H-imidazol-4-one]		III (III = <10-fold selectivity)	> 1
CN1C(=O)[C@@](c2ccc(OC(F)F)cc2)(c2cccc(-c3ccc(F)nc3)c2)N=C1N [Example 135B, (5R)-2-Amino-5-[4-(difluoromethoxy)phenyl]-5-[3-(6-fluoropyridin-3-yl)phenyl]-3-methyl-3,5-dihydro-4H-imidazol-4-one]		II (II = 10-100-fold selectivity)	0.01 to 0.1
CCOc1ccc([C@]2(c3ccc(F)c(-c4cccnc4F)c3)N=C(N)N(C)C2=O)cc1OCC [Example 136A, (5S)-2-Amino-5-(3,4-diethoxyphenyl)-5-[4-fluoro-3-(2-fluoropyridin-3-yl)phenyl]-3-methyl-3,5-dihydro-4H-imidazol-4-one]		II (II = 10-100-fold selectivity)	0.01 to 0.1
CN1C(=O)[C@](c2ccc(OC(F)F)cc2)(c2cccc(-c3cc(F)cnc3F)c2)N=C1N [Example 137A, (5S)-2-Amino-5-[4-(difluoromethoxy)phenyl]-5-[3-(2,5-difluoropyridin-3-yl)phenyl]-3-methyl-3,5-dihydro-4H-imidazol-4-one]		III (III = <10-fold selectivity)	> 1
CN1C(=O)[C@@](c2ccc(OC(F)F)cc2)(c2cccc(-c3cc(F)cnc3F)c2)N=C1N [Example 137B, (5R)-2-Amino-5-[4-(difluoromethoxy)phenyl]-5-[3-(2,5-difluoropyridin-3-yl)phenyl]-3-methyl-3,5-dihydro-4H-imidazol-4-one]		II (II = 10-100-fold selectivity)	0.01 to 0.1
CN1C(=O)[C@](c2ccc(OCCF)cc2)(c2ccc(F)c(-c3cncnc3)c2)N=C1N [Example 139A, (5S)-2-Amino-5-[4-(2-fluoroethoxy)phenyl]-5-(4-fluoro-3-pyrimidin-5-ylphenyl)-3-methyl-3,5-dihydro-4H-imidazol-4-one]		I (I = >100-fold selectivity)	0.01 to 0.1
CN1C(=O)[C@@](c2ccc(OCCF)cc2)(c2ccc(F)c(-c3cncnc3)c2)N=C1N [Example 139B, (5R)-2-Amino-5-[4-(2-fluoroethoxy)phenyl]-5-(4-fluoro-3-pyrimidin-5-ylphenyl)-3-methyl-3,5-dihydro-4H-imidazol-4-one]		III (III = <10-fold selectivity)	0.11 to 1
COc1ccc([C@@]2(c3ccc(F)c(-c4cncc(F)c4)c3)N=C(N)N(C)C2=O)cc1 [Example 142A, (5S)-2-Amino-5-[4-fluoro-3-(5-fluoropyridin-3-yl)phenyl]-5-(4-methoxyphenyl)-3-methyl-3,5-dihydro-4H-imidazol-4-one]		III (III = <10-fold selectivity)	> 1
COc1ccc([C@]2(c3ccc(F)c(-c4cncc(F)c4)c3)N=C(N)N(C)C2=O)cc1 [Example 142B, (5R)-2-Amino-5-[4-fluoro-3-(5-fluoropyridin-3-yl)phenyl]-5-(4-methoxyphenyl)-3-methyl-3,5-dihydro-4H-imidazol-4-one]		II (II = 10-100-fold selectivity)	0.01 to 0.1
COc1ccc([C@@]2(c3ccc(F)c(-c4cnccc4F)c3)N=C(N)N(C)C2=O)cc1 [Example 143A, (5S)-2-Amino-5-[4-fluoro-3-(4-fluoropyridin-3-yl)phenyl]-5-(4-methoxyphenyl)-3-methyl-3,5-dihydro-4H-imidazol-4-one]		III (III = <10-fold selectivity)	> 1
COc1ccc([C@]2(c3ccc(F)c(-c4cnccc4F)c3)N=C(N)N(C)C2=O)cc1 [Example 143B, (5R)-2-Amino-5-[4-fluoro-3-(4-fluoropyridin-3-yl)phenyl]-5-(4-methoxyphenyl)-3-methyl-3,5-dihydro-4H-imidazol-4-one]		II (II = 10-100-fold selectivity)	0.01 to 0.1
CN1CC(c2ccc(OC(F)(F)F)cc2)(c2ccc(F)c(-c3cccnc3F)c2)N=C1N (centres unmarked) [Example 144, 4-[4-Fluoro-3-(2-fluoropyridin-3-yl)phenyl]-1-methyl-4-(4-trifluoromethoxyphenyl)-4,5-dihydro-1H-imidazol-2-ylamine]		I (I = >100-fold selectivity)	0.11 to 1

Reference: patent publication US7700602B2, “Amino-5,5-diphenylimidazolone derivatives for the inhibition of β-secretase” (Wyeth LLC, priority 2004, dated 2010)
